This note sets out measurements from ChEMBL document CHEMBL1150242, “Subinhibitory concentrations of antibiotics induce phenazine production in a marine Streptomyces sp” (2008).

Calls of active or inactive are those of the source. No cut-off for these calls is given here.

In one experiment the test system is Mammaliicoccus lentus. Description: Antibacterial activity against Staphylococcus lentus. It counts as functional.
The next experiment concerns Bacillus subtilis. In words: Antibacterial activity against Bacillus subtilis. The format is functional.
The subject of the next experiment is Escherichia coli. In words: Antibacterial activity against Escherichia coli. The format is functional, organism-based.
In the next experiment the test system is Pseudomonas fluorescens. Description: Antibacterial activity against Pseudomonas fluorescens. The format is functional, organism-based.
In a further experiment the test system is Pseudomonas syringae. Description: Antibacterial activity against Pseudomonas syringae. The format is functional, organism-based.
Another experiment deals with Xanthomonas campestris. In words: Antibacterial activity against Xanthomonas campestris. The format is functional, organism-based.
The next experiment has as its system Erwinia amylovora. In words: Antibacterial activity against Erwinia amylovora. It counts as functional, organism-based.
Another experiment concerns Ralstonia solanacearum. Description: Antibacterial activity against Ralstonia solanacearum. It counts as functional, organism-based.
The next experiment concerns Nakaseomyces glabratus. Description: Antibacterial activity against Candida glabrata. The format is functional, organism-based.

Regarding `COC(=O)c1cccc2nc3c(C(C(=O)OC)C(O)CCCC(C)C)cccc3nc12` (stereo unspecified) [STREPTOPHENAZINE A], the Activity with Mammaliicoccus lentus was 62.5 µg/mL; in the experiment on Bacillus subtilis it was 46.9 µg/mL. In addition, the result with Escherichia coli, in the experiment on Pseudomonas fluorescens, in the experiment on Pseudomonas syringae, with Xanthomonas campestris, with Erwinia amylovora and with Ralstonia solanacearum was inactive. The result with Nakaseomyces glabratus was inactive.
Take `CCCCCCC(O)C(C(=O)OC)c1cccc2nc3c(C(=O)OC)cccc3nc12` (stereo unspecified) [STREPTOPHENAZINE B]: the Activity in the experiment with Mammaliicoccus lentus is 62.5 µg/mL. Also, the result with Bacillus subtilis, with Escherichia coli, with Pseudomonas fluorescens, in the experiment with Pseudomonas syringae, in the experiment on Xanthomonas campestris and with Erwinia amylovora was inactive. For the same compound, the outcome in the experiment with Ralstonia solanacearum and in the experiment on Nakaseomyces glabratus was inactive.
Regarding `COC(=O)C(c1cccc2nc3c(C(=O)O)cccc3nc12)C(O)CCCC(C)C` (stereo unspecified) [STREPTOPHENAZINE C], the values for the Activity in the experiment with Mammaliicoccus lentus and in the experiment with Bacillus subtilis were 46.9 µg/mL and 15.6 µg/mL, respectively. Also, the result with Escherichia coli, in the experiment with Pseudomonas fluorescens, in the experiment with Pseudomonas syringae, with Xanthomonas campestris, with Erwinia amylovora and in the experiment on Ralstonia solanacearum was inactive. Besides, in the experiment on Nakaseomyces glabratus, the outcome was inactive.
In the experiment on Bacillus subtilis, `COC(=O)c1cccc2nc3c(C(C(=O)OC)C(O)CCC(C)C)cccc3nc12` (stereo unspecified) [STREPTOPHENAZINE D] gave an Activity of 62.5 µg/mL. Also, in the experiment with Nakaseomyces glabratus, the outcome was inactive.
Regarding `CCCCC(O)C(C(=O)OC)c1cccc2nc3c(C(=O)OC)cccc3nc12` (stereo unspecified) [STREPTOPHENAZINE E], the Activity in the experiment on Bacillus subtilis is 62.5 µg/mL. Moreover, the result in the experiment on Nakaseomyces glabratus was inactive.
Turning to `COC(=O)c1cccc2nc3c(C(C(=O)OC)C(O)CCCCC(C)C)cccc3nc12` (stereo unspecified) [STREPTOPHENAZINE F], the Activity in the experiment with Mammaliicoccus lentus stood at 62.5 µg/mL. Besides, the outcome in the experiment with Bacillus subtilis, with Escherichia coli, in the experiment on Pseudomonas fluorescens, in the experiment on Pseudomonas syringae, with Xanthomonas campestris and with Erwinia amylovora was inactive. The outcome with Ralstonia solanacearum and with Nakaseomyces glabratus was inactive.
In the experiment with Mammaliicoccus lentus, `CCC(C)CCCC(O)C(C(=O)OC)c1cccc2nc3c(C(=O)OC)cccc3nc12` (stereo unspecified) [STREPTOPHENAZINE G] registered an Activity of 62.5 µg/mL. Also, the result in the experiment on Bacillus subtilis, in the experiment with Escherichia coli, in the experiment on Pseudomonas fluorescens, with Pseudomonas syringae, in the experiment on Xanthomonas campestris and with Erwinia amylovora was inactive. Moreover, the result in the experiment on Ralstonia solanacearum and with Nakaseomyces glabratus was inactive.
`COC(=O)c1cccc2nc3c(C(C(=O)OC)C(O)CCCC(C)(C)O)cccc3nc12` (stereo unspecified) [STREPTOPHENAZINE H]: the Activity with Bacillus subtilis was determined as 15.6 µg/mL. In the experiment on Nakaseomyces glabratus, the result was inactive.
